{"source": "patent US20250230193A1", "about": "“CYCLIC COMPOUND HAVING SELECTIVE KRAS INHIBITORY EFFECT ON HRAS AND NRAS” (CHUGAI SEIYAKU KABUSHIKI KAISHA, priority 2022, published 2025)", "key": {"[1]": {"target": "GDP-bound NRAS wild-type protein (Homo sapiens, UniProt P01111)", "sequence (P01111 whole entry)": "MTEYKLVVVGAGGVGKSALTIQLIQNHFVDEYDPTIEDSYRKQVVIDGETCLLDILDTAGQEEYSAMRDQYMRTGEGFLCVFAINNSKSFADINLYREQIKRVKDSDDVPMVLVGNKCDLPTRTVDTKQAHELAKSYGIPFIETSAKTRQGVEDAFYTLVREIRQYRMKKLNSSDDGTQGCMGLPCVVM", "assay": "Binding to NRAS by surface plasmon resonance (SPR), Single Cycle Kinetics", "conditions": "for NRAS/KRAS (ratio of KD for GDP-bound NRAS wild-type to KD for KRAS) / NRAS/KRAS (ratio of KD value with respect to NRAS to KD value with respect to KRAS): SPR; for NRAS/KRAS (ratio of KD value with respect to NRAS to KD value with respect to KRAS): GDP-bound NRAS wild-type vs GDP-bound KRAS wild-type"}, "[2]": {"target": "GDP-bound HRAS wild-type protein (Homo sapiens, UniProt P01112)", "sequence (P01112 whole entry)": "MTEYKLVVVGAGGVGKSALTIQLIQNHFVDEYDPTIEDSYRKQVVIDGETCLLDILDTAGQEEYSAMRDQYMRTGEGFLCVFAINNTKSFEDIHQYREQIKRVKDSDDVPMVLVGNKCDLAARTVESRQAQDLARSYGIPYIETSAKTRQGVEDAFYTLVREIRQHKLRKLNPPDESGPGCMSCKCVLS", "assay": "Binding to HRAS by surface plasmon resonance (SPR), Single Cycle Kinetics", "conditions": "for HRAS/KRAS (ratio of KD for GDP-bound HRAS wild-type to KD for KRAS) / HRAS/KRAS (ratio of KD value with respect to HRAS to KD value with respect to KRAS): SPR; for HRAS/KRAS (ratio of KD value with respect to HRAS to KD value with respect to KRAS): GDP-bound HRAS wild-type vs GDP-bound KRAS wild-type"}}, "note": "*1 amine or outer side, *2 acyl side, *3 side chain or, on linkers, in order; H or OH if unused. Where a SMILES comes first, the peptide text is derived from it. Bridges are numbered along the chain shown (N, C = ends). [ ]: non-standard residue; d: D form. The star is where a group is joined. hPhe(3-Cl-4-CF3) = N[C@@H](CCc1ccc(C(F)(F)F)c(Cl)c1)C(=O)O; X11 = C=CCN([C@@H](Cc1ccc(C(F)(F)F)cc1)C(=O)[*:2])[*:1]; NPrPhe(4-CF3) = CCCN[C@@H](Cc1ccc(C(F)(F)F)cc1)C(=O)O; NMeGly(cPent) = CN[C@H](C(=O)O)C1CCCC1; Pro(4,4-F2) = O=C(O)[C@@H]1CC(F)(F)CN1; Hyp = O=C(O)[C@@H]1C[C@@H](O)CN1; NMeD = CN[C@@H](CC(=O)O)C(=O)O; NMeL = CN[C@@H](CC(C)C)C(=O)O; Morpholide = C1CN(*)CCO1; NMeA = CN[C@@H](C)C(=O)O; Ac5c = NC1(C(=O)O)CCCC1; Aze = O=C(O)[C@@H]1CCN1; Ac4c = NC1(C(=O)O)CCC1; NEtG = CCNCC(=O)O; Sar = CNCC(=O)O", "data": [{"smiles": "CCCN1C(=O)CN(C)C(=O)CN(CC)C(=O)[C@H]([C@@H](C)CC)NC(=O)[C@H](CC(C)C)N(C)C(=O)C[C@@H](C(=O)N2CCOCC2)NC(=O)[C@H](C2CCCC2)N(C)C(=O)C2(CCCC2)NC(=O)[C@@H]2CC(F)(F)CN2C(=O)[C@H](CCc2ccc(C(F)(F)F)c(Cl)c2)NC(=O)CN(C)C(=O)[C@@H]1Cc1ccc(C(F)(F)F)cc1", "note": "[PP0333] ([NMeL]I[NEtG][Sar][NPrPhe(4-CF3)][Sar][hPhe(3-Cl-4-CF3)][Pro(4,4-F2)][Ac5c][NMeGly(cPent)]D-Morpholide; lactam N-11)", "values": [{"measurement": "NRAS/KRAS (ratio of KD for GDP-bound NRAS wild-type to KD for KRAS)", "setting": "[1]; KD ratio NRAS/KRAS", "value": "B (a compound having 3 or more and less than 10 is denoted as B)"}, {"measurement": "HRAS/KRAS (ratio of KD for GDP-bound HRAS wild-type to KD for KRAS)", "setting": "[2]; KD ratio HRAS/KRAS", "value": "C (A compound having a KD ratio of 0.1 or more and less than 3 is denoted as C)"}]}, {"smiles": "CCO[C@@H]1C[C@H]2C(=O)NC3(CCC3)C(=O)N(C)[C@@H](C3CCCC3)C(=O)N(C)[C@H](C(=O)N(C)C)CC(=O)N(C)[C@@H](COC)C(=O)N[C@@H]([C@@H](C)CC)C(=O)N(C)CC(=O)N(C)[C@H]3C/C=C\\CCN(C3=O)[C@@H](Cc3ccc(C(F)(F)F)cc3)C(=O)N(C)CC(=O)N[C@@H](CCc3cc(F)c(C(F)(F)F)c(F)c3)C(=O)N2C1", "note": "[PP1113]", "values": [{"measurement": "NRAS/KRAS (ratio of KD value with respect to NRAS to KD value with respect to KRAS)", "setting": "[1]; KD ratio", "value": "A (a compound having 10 or more and less than 20 is denoted as A)"}, {"measurement": "HRAS/KRAS (ratio of KD value with respect to HRAS to KD value with respect to KRAS)", "setting": "[2]; KD ratio", "value": "A (a compound having 10 or more and less than 20 is denoted as A)"}]}, {"smiles": "CC[C@H](C)[C@@H]1NC(=O)[C@H](CC)N(C)C(=O)C[C@@H](C(=O)N(C)C)N(C)C(=O)[C@H](C2CCCC2)N(C)C(=O)C2(CCC2)NC(=O)[C@H](COCCC(C)C)N(C)C(=O)[C@H](CCc2cc(F)c(C(F)(F)F)c(F)c2)NC(=O)CN(C)C(=O)[C@H](Cc2ccc(C(F)(F)F)cc2)N2CC/C=C\\C[C@@H](C2=O)N(C)C(=O)CN(C)C1=O", "note": "[PP1148]", "values": [{"measurement": "NRAS/KRAS (ratio of KD value with respect to NRAS to KD value with respect to KRAS)", "setting": "[1]; KD ratio", "value": "A (a compound having 10 or more and less than 20 is denoted as A)"}, {"measurement": "HRAS/KRAS (ratio of KD value with respect to HRAS to KD value with respect to KRAS)", "setting": "[2]; KD ratio", "value": "A (a compound having 10 or more and less than 20 is denoted as A)"}]}, {"smiles": "CCC[C@H]1C(=O)N[C@@H]([C@@H](C)CC)C(=O)N(C)CC(=O)N(C)[C@H]2C/C=C\\CCN(C2=O)[C@@H](Cc2ccc(C(F)(F)F)cc2)C(=O)N(C)CC(=O)N[C@@H](CCc2ccc(C(F)(F)F)c(OC)c2)C(=O)N2C[C@H](OCC)C[C@H]2C(=O)NC2(CC(C)(C)C2)C(=O)N(C)[C@@H](CC(C)(C)C)C(=O)N(C)[C@H](C(=O)N(C)C)CC(=O)N1C", "note": "[PP2734]", "values": [{"measurement": "NRAS/KRAS (ratio of KD value with respect to GDP-bound NRAS wild-type protein to KD value with respect to KRAS)", "setting": "[1]; KD ratio NRAS/KRAS, class symbols", "value": "A (a compound having 10 or more and less than 20 is denoted as A)"}, {"measurement": "HRAS/KRAS (ratio of KD value with respect to GDP-bound HRAS wild-type protein to KD value with respect to KRAS)", "setting": "[2]; KD ratio HRAS/KRAS, class symbols", "value": "B (a compound having 3 or more and less than 10 is denoted as B)"}]}, {"smiles": "CCC[C@H]1C(=O)N[C@@H](CC(C)C)C(=O)N(C2CC2)CC(=O)N(C)[C@H]2C/C=C\\CCN(C2=O)[C@@H](Cc2ccc(C)cc2)C(=O)N(C)CC(=O)N[C@@H](CCc2ccc(C(F)(F)F)c(OC)c2)C(=O)N2C[C@H](OCC)C[C@H]2C(=O)NC2(CC(C)(C)C2)C(=O)N(C)[C@@H](C2CCCC2)C(=O)N(C)[C@H](C(=O)N(C)C)CC(=O)N1C", "note": "[PP2510]", "values": [{"measurement": "NRAS/KRAS (ratio of KD value with respect to NRAS to KD value with respect to KRAS)", "setting": "[1]", "value": "A (a compound having 10 or more and less than 20 is denoted as A)"}, {"measurement": "HRAS/KRAS (ratio of KD value with respect to HRAS to KD value with respect to KRAS)", "setting": "[2]", "value": "B (a compound having 3 or more and less than 10 is denoted as B)"}]}, {"smiles": "C=CCN1C(=O)[C@@H]2CCN2C(=O)[C@H](C)N(C)C(=O)[C@H]([C@@H](C)CC)NC(=O)[C@H](CC(C)C)N(C)C(=O)C[C@@H](C(=O)N2CCOCC2)N(C)C(=O)[C@H](C2CCCC2)N(C)C(=O)C2(CCCC2)NC(=O)[C@@H]2CCCN2C(=O)[C@H](CCc2ccc(C(F)(F)F)c(Cl)c2)NC(=O)CN(C)C(=O)[C@@H]1Cc1ccc(C(F)(F)F)cc1", "note": "[PP0114] ([NMeL]I[NMeA][Aze][X11][Sar][hPhe(3-Cl-4-CF3)]P[Ac5c][NMeGly(cPent)][NMeD]-Morpholide; lactam N-11)", "values": [{"measurement": "NRAS/KRAS (ratio of KD for GDP-bound NRAS wild-type to KD for KRAS)", "setting": "[1]; KD ratio NRAS/KRAS", "value": "C (A compound having a KD ratio of 0.1 or more and less than 3 is denoted as C)"}, {"measurement": "HRAS/KRAS (ratio of KD for GDP-bound HRAS wild-type to KD for KRAS)", "setting": "[2]; KD ratio HRAS/KRAS", "value": "C (A compound having a KD ratio of 0.1 or more and less than 3 is denoted as C)"}]}, {"smiles": "CCCN1C(=O)CN(C)C(=O)CN(C)C(=O)[C@H]([C@@H](C)CC)NC(=O)[C@H](CC(C)C)N(C)C(=O)C[C@@H](C(=O)N2CCOCC2)N(C)C(=O)[C@H](C2CCCC2)N(C)C(=O)C2(CCC2)NC(=O)[C@@H]2C[C@@H](OCC)CN2C(=O)[C@H](CCc2ccc(C(F)(F)F)c(Cl)c2)NC(=O)CN(C)C(=O)[C@@H]1Cc1ccc(C(F)(F)F)cc1", "note": "[PP0392] ([NMeL]I[Sar][Sar][NPrPhe(4-CF3)][Sar][hPhe(3-Cl-4-CF3)][Hyp](Et)[Ac4c][NMeGly(cPent)][NMeD]-Morpholide; lactam N-11)", "values": [{"measurement": "NRAS/KRAS (ratio of KD for GDP-bound NRAS wild-type to KD for KRAS)", "setting": "[1]; KD ratio NRAS/KRAS", "value": "B (a compound having 3 or more and less than 10 is denoted as B)"}, {"measurement": "HRAS/KRAS (ratio of KD for GDP-bound HRAS wild-type to KD for KRAS)", "setting": "[2]; KD ratio HRAS/KRAS", "value": "C (A compound having a KD ratio of 0.1 or more and less than 3 is denoted as C)"}]}]}
